Publication PMC11786100, “Chronic GIPR agonism results in pancreatic islet GIPR functional desensitisation” (Molecular Metabolism, 2025)

Tests used:
SNAP-tagged human GIPR = target: T1, SNAP-tagged human GIPR (Homo sapiens, UniProt P48546); assay: Internalisation and receptor surface expression assays in AD-293 cells; type: cell-based; conditions: 1 μM
T1 construct: host or cells: AD-293
T1 sequence (P48546 22-466): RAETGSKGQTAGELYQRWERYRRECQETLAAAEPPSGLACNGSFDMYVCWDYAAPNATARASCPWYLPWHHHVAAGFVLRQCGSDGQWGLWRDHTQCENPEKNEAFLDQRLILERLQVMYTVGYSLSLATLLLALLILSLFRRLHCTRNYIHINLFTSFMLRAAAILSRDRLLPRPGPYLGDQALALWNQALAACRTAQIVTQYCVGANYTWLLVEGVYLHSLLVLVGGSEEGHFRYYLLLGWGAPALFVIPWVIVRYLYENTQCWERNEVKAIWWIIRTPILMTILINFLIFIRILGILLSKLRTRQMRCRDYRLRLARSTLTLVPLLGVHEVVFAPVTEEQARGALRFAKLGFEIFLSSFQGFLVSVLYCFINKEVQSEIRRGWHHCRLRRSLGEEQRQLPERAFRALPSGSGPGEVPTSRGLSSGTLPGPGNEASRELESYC
Description: (§1) AD-293 cells were transfected with desired plasmid DNA encoding a SNAP-tagged G-protein coupled receptor (GPCR) 24 h prior to assay. For 1 h internalisation assays, cells were labelled for 10 min with cleavable SNAP-tag probe BG-S-S-649 (New England BioLabs, US). Following 1 h treatment with specified peptide, cells were imaged at baseline and after addition of 2-mercaptoethane sulfonate (Mesna). For 4-hour GPCR surface expression assays, cells were treated with the specified peptide for 4 h, prior to 10-minute labelling with BG-S-S-649 and imaging.
(§2) AD-293 cells were added to a 96-well plate and maintained in 200 μl complete DMEM. […]
(§3) For 1 hour internalisation assays, cells were labelled with cleavable SNAP-tag probe BG-S-S-649 (New England BioLabs, US) in complete DMEM for 10 minutes prior to washing and 1 hour treatment with specified peptide, reconstituted in DMEM + 0.1% BSA. […] GPCR internalisation was quantified as the cell fluorescence following Mesna addition (representing internalised GPCR), corrected for the baseline cell fluorescence (representing total cellular GPCR).
(§4) For 4-hour GPCR surface expression assays, cells were treated with specified peptide for 4 hours in complete DMEM prior to labelling with BG-S-S-649. […] GPCR surface expression following peptide treatment was quantified as cell fluorescence as a percentage of cell fluorescence following vehicle treatment.

[1] = test system: lean and HFD-induced obese mice; assay: In vivo GIPR desensitisation: IPGTT and insulin bleeds; set-up: species or system mouse
Description: In all in vivo studies, mice were randomised by body weight into groups. Mice received a 50 μL subcutaneous injection of saline (0.9% sodium chloride) or peptide at a specified dose, diluted in saline. Peptide dosing was in nmol per kg of total body weight. For the assessment of the chronic effects of GIP108, mice were injected daily for 15 days. Body composition was measured by EchoMRI on day −1 and day 15. An intraperitoneal glucose tolerance test (IPGTT) (2 g/kg) was conducted on day 14, following 6 h of fasting and 2 h after peptide injection. Non-fasting plasma leptin (ab199082, Abcam, UK), adiponectin (ab226900, Abcam, UK) and amino acids (ab65347, Abcam, UK) were measured on day 16. For the assessments of in vivo GIPR desensitisation, mice were injected at 17:00 with vehicle or GIP108 (30 nmol/kg) prior to an acute food intake study/IPGTT/insulin bleeds conducted the following day. Full details of the in vivo studies are provided in the supplementary methods.
Mice were fasted at 08:00. For all studies, 20% glucose was administered at 14:00, with the injection volume adjusted to the body weight of the mouse such that each mouse received glucose at 2 g/kg. To assess effects of GIP108 on day 14 of the chronic study, mice were dosed with saline or GIP108 at a specified dose at 12:00. […] Blood glucose measurements were taken via tail vein venesection at baseline, t=15, t=30, t=60, t=90 and t=120 mins. Glucose AUC is calculated using y=0. Glucose readings were measured in mmol/L using the same GlucoRx glucometer.
Mice were fasted at 08:00. At 14:00, mice received an intraperitoneal injection with 20% glucose, with the injection volume adjusted to the body weight of the mouse such that each mouse received glucose at 2 g/kg. […] Blood samples were taken via tail vein venesection at baseline and t=15 minutes following injection.
Leptin, adiponectin and amino acids were quantified following chronic GIP108 administration. Plasma amino acids were measured using the Abcam L-amino acid assay kit (ab65347, Abcam, UK). Plasma adiponectin was measured using the Abcam mouse adiponectin ELISA kit (ab226900, Abcam, UK). Plasma leptin was measured using the Abcam mouse leptin ELISA kit (ab199082, Abcam, UK). All assays were performed according to the manufacturer’s protocol and were read using the SpectraMax i3x Microplate Reader (Molecular Devices, US).

SNAP-tagged mouse GIPR = target: T2, SNAP-tagged mouse GIPR (Mus musculus, UniProt Q0P543); assay: Internalisation and receptor surface expression assays in AD-293 cells; type: cell-based; conditions: 1 μM, 1-hour treatment, BG-S-S-649/Mesna, n = 3–4
T2 construct: host or cells: AD-293
T2 sequence (Q0P543 19-460): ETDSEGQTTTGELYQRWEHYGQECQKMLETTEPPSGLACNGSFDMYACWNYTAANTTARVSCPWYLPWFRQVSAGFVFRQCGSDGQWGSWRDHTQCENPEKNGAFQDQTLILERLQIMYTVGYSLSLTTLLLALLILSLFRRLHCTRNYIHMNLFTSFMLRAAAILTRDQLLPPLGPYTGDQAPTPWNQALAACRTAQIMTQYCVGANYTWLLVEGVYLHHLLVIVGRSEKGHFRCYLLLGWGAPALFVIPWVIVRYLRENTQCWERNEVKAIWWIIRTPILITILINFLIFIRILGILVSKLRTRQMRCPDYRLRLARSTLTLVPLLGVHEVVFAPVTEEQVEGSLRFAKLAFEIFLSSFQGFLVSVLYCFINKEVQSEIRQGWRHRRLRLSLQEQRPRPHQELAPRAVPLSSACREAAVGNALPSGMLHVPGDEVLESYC
Description: as §1, §2, §3, §4

mouse SNAP-tagged GIPR = target: T3, mouse SNAP-tagged GIPR (Mus musculus, UniProt Q0P543); assay: β-arrestin-2 activation assay (Borealis sensor) in AD-293 cells; type: cell-based; conditions: 1 μM, 30-minute stimulation, n = 5–6
T3 construct: host or cells: AD-293
T3 sequence (Q0P543 19-460): T2 sequence (Q0P543 19-460)
Description: AD-293 cells were transfected with desired plasmid DNA encoding a SNAP-tagged GPCR alongside transduction of Bacmam viral particles encoding the Borealis β-arrestin-2 sensor (Montana Molecular, US) and GRK5 (Montana Molecular, US) 24 h prior to assay. Cells were labelled for 10 min with BG-S-S-649 and imaged at baseline and for 30 min following peptide stimulation. Borealis arrestin sensor fluorescence in BG-S-S-649 labelled cells (representing GPCR expressing cells) was quantified and expressed as a % change from baseline.
AD-293 cells were added to a 96-well plate and maintained in 200 μL complete DMEM. 150 ng of mouse or human SNAP-tagged plasmid GIPR or GLP-1R DNA, 2 μL of Borealis β-arrestin-2 sensor (Montana Molecular, US) and 2 μL of GRK5 (Montana Molecular, US) was added to each well alongside Lipofectamine 2000 and left for 24 hours.
Cells were labelled with cleavable SNAP-tag probe BG-S-S-649 in complete DMEM for 10 minutes prior to washing and imaging. […] Cells were imaged at baseline, registering both BG-S-S-649 fluorescence and borealis arrestin sensor fluorescence. Borealis arrestin sensor fluorescence was then imaged for 30 minutes after peptide addition in intervals of 5 minutes. Borealis arrestin sensor fluorescence in BG-S-S-649 labelled cells was quantified using Fiji v1.54f (NIH) and expressed as a % change from baseline.

CC[C@H](C)[C@H](NC(=O)[C@H](CO)NC(=O)[C@H](Cc1ccc(O)cc1)NC(=O)[C@H](CC(=O)O)NC(=O)[C@H](CO)NC(=O)[C@@H](NC(=O)[C@H](Cc1ccccc1)NC(=O)[C@@H](NC(=O)CNC(=O)[C@H](CCC(=O)O)NC(=O)C(C)(C)NC(=O)[C@@H](N)Cc1ccc(O)cc1)[C@@H](C)O)[C@@H](C)CC)C(=O)N[C@@H](C)C(=O)N[C@@H](CC(C)C)C(=O)N[C@@H](CC(=O)O)C(=O)N[C@@H](CCCCN)C(=O)N[C@H](C(=O)N[C@@H](Cc1c[nH]cn1)C(=O)N[C@@H](CCC(N)=O)C(=O)N[C@@H](CCC(N)=O)C(=O)N[C@@H](CC(=O)O)C(=O)N[C@@H](Cc1ccccc1)C(=O)N[C@H](C(=O)N[C@@H](CC(N)=O)C(=O)N[C@@H](Cc1c[nH]c2ccccc12)C(=O)N[C@@H](CC(C)C)C(=O)N[C@@H](CC(C)C)C(=O)N[C@@H](C)C(=O)N[C@@H](CCC(N)=O)C(=O)N[C@@H](CCCCN)C(=O)NCC(=O)N[C@@H](CCCCNC(=O)CC[C@H](NC(=O)CCCCCCCCCCCCCCCCCCC(=O)O)C(=O)O)C(=O)N[C@@H](CCCCN)C(=O)N[C@@H](CC(N)=O)C(=O)N[C@@H](CC(=O)O)C(=O)N[C@@H](Cc1c[nH]c2ccccc12)C(=O)N[C@@H](CCCCN)C(=O)N[C@@H](Cc1c[nH]cn1)C(=O)N[C@@H](CC(N)=O)C(=O)N[C@H](C(=O)N[C@H](C(=O)N[C@@H](CCC(N)=O)C(=O)O)[C@@H](C)O)[C@@H](C)CC)C(C)C)[C@@H](C)CC [GIP108]
receptor internalisation compared to vehicle (SNAP-tagged human GIPR; 1-hour treatment, BG-S-S-649/Mesna, n = 3–4): increased human GIPR internalisation | residual receptor detectable at the cell surface (SNAP-tagged human GIPR; 4 h treatment, post-stimulation labelling, n = 7–8): reduction in residual human GIPR | effect of GIP108 pre-treatment on hGIP (50 nmol/kg) improvement of glucose tolerance ([1]; GIP108 30 nmol/kg s.c. 21 h prior to IPGTT, lean and HFD-induced obese mice, n = 14–16): ability to improve glucose tolerance was reduced | plasma insulin response to GIP/glucose administration after GIP108 pre-treatment ([1]; GIP108 30 nmol/kg s.c. 21 h prior, hGIP 50 nmol/kg, 15 min, lean mice, n = 8): blunted | receptor internalisation compared to vehicle (SNAP-tagged mouse GIPR): did not increase mouse GIPR internalisation | β-arrestin-2 activation compared to vehicle control (mouse SNAP-tagged GIPR): neither hGIP (1 μM) nor GIP108 (1 μM) resulted in significant increases
